# Laboratory results from patent US20180228861A1, “COMPOSITION FOR TREATING DIABETES AND DYSLIPIDEMIA OBTAINED FROM THE EXTRACT OF COSTUS PICTUS D.DON PLANT AND A METHOD OF PREPARING THE SAME” (ARJUNA NATURAL EXTRACTS, LTD., priority 2012, published 2018).
# How the values were obtained:
# Type in all cases: in vivo
# [1] = tested on: high fat diet-induced insulin resistance model with C57/BL 6J mice; test: Body weight in high fat diet-induced insulin resistance model
# Description: Evaluation of effect of different fractions of Costus pictus D. Don on high fat diet-induced insulin resistance model with C57/BL 6J mice.
# (§1) The study was designed to evaluate the effect of different fractions of Costus pictus D. Don on high fat-induced resistance Type 2diabetic model (HFD). Six week-old C57B1/6J mice were allowed free access to food and water. They were housed under identical standard conditions. The animals were kept for acclimatization for a period of 7 days. After 7 days, the mice were randomly divided into six groups of six mice each. The normal control group was treated with normal regular diet and the rest of the animals were fed with high fat diet for 6 weeks. After 6 weeks, methanolic extract of fresh leaves of Costus pictus D. Don, and the extract had low oxalic acid and/or oxalates content, silica purified ethyl acetate extract of methanolic extract of fresh leaves of Costus pictus D. Don where the extract had low oxalic acid and/or oxalates content and ethyl acetate extract of 90% methanolic extract of fresh leaves of Costus pictus D. Don where the extract had low oxalic acid and/or oxalates content were administered at 40 mg/kg p.o. for 6 consecutive weeks. The experimental design was as follows:
# Group 3—HFD for 6 weeks and Standard drug treated group for 6 weeks—metformin.
# Group 4—HFD for 6 weeks and methanolic extract of fresh leaves of Costus pictus D. Don where the extract had low oxalic acid and/or oxalates content (Sample 2 prepared as per example 1) at 40 mg/kg orally for 6 weeks.
# Group 5—HFD for 6 weeks and silica purified ethyl acetate extract of 90% methanolic extract of fresh leaves of Costus pictus D. Don where the extract had low oxalic acid and/or oxalates content (Sample 5 prepared as per example 4) at 40 mg/kg orally for 6 weeks.
# Group 6—HFD for 6 weeks and ethyl acetate extract of 90% methanol extract of fresh leaves of Costus pictus D. Don where the extract had low oxalic acid and/or oxalates content (Sample 4 prepared as per example 3) at 40 mg/kg orally for 6 weeks.
# (§2) Body weights were determined biweekly. At the end of experimental period, blood samples were collected to determine plasma glucose, insulin, leptin, glycosylated hemoglobin, triglycerides, total cholesterol, LDL, HDL and VLDL.
# [2] = tested on: high fat diet-induced insulin resistance model with C57/BL 6J mice; test: Serum insulin and glycosylated hemoglobin in high fat diet-induced insulin resistance model; conditions: high fat diet induced diabetes mellitus, extracts 40 mg/kg orally for 6 weeks, metformin as standard drug
# Protocol: as §1, §2
# [3] = tested on: high fat diet-induced insulin resistance model with C57/BL 6J mice; test: Blood glucose in high fat diet-induced insulin resistance model; conditions: HFD mice, end of experimental period; extracts 40 mg/kg orally for 6 weeks, metformin as standard drug
# Protocol: as §1, §2
# [4] = tested on: high fat diet-induced insulin resistance model with C57/BL 6J mice; test: Lipid profile in high fat diet-induced insulin resistance model; conditions: high fat diet induced diabetes mellitus, extracts 40 mg/kg orally for 6 weeks, metformin as standard drug
# Protocol: The study was designed to evaluate the effect of different fractions of Costus pictus D. Don on high fat-induced resistance Type 2diabetic model (HFD). Six week-old C57B1/6J mice were allowed free access to food and water. They were housed under identical standard conditions. The animals were kept for acclimatization for a period of 7 days. After 7 days, the mice were randomly divided into six groups of six mice each. The normal control group was treated with normal regular diet and the rest of the animals were fed with high fat diet for 6 weeks. […] The experimental design was as follows:
# as §2
smiles,measurement,setting,value
CN(C)C(=N)N=C(N)N [metformin],"Body weight, week 0","[1]; C57/BL 6J mice on high fat diet, week 0, before treatment",15 grams
same,"Body weight, week 2","[1]; C57/BL 6J mice on high fat diet, week 2, before treatment",30 grams
same,"Body weight, week 4","[1]; C57/BL 6J mice on high fat diet, week 4, before treatment",46 grams
same,"Body weight, week 6","[1]; C57/BL 6J mice on high fat diet, week 6, start of treatment",61 grams
same,"Body weight, week 8","[1]; HFD mice, week 8, extracts 40 mg/kg orally from week 6, metformin as standard drug",48 grams
same,"Body weight, week 10","[1]; HFD mice, week 10, extracts 40 mg/kg orally from week 6, metformin as standard drug",35 grams
same,"Body weight, week 12","[1]; HFD mice, week 12, extracts 40 mg/kg orally from week 6, metformin as standard drug",35 grams
same,Glycosylated Hb,[2],0.5 % of total Hb
same,Insulin,[2]; serum,1.7 ng/mL
same,Blood glucose,[3],100 mg/dL
same,HDL,[4],99 mg/dL
same,LDL,[4],17 mg/dL
same,VLDL,[4],6 mg/dL
same,TC,[4]; total cholesterol,122 mg/dL
same,TG,[4]; triglycerides,30 mg/dL
